Experimental data taken from ChEMBL document CHEMBL1921717, “Benzothiazole-containing hydroxamic acids as histone deacetylase inhibitors and antitumor agents” (Bioorg Med Chem Lett, 2011).
Values after ≈ are worked out from the molar mass of the structure shown. Active and inactive are the calls of the source. The rule behind the calls is not given here.

How the values were obtained:
[1] = biological target: Histone deacetylase 4 (Homo sapiens) (UniProt P56524); assay: Inhibition of HDAC4 in human SW620 cells assessed as increase in histone H3 acetylation at 1 ug/ml after 24 hrs by Western blot analysis; type: cell-based; settings: SW-620
Sequence of Histone deacetylase 4 (Homo sapiens) (P56524 whole entry): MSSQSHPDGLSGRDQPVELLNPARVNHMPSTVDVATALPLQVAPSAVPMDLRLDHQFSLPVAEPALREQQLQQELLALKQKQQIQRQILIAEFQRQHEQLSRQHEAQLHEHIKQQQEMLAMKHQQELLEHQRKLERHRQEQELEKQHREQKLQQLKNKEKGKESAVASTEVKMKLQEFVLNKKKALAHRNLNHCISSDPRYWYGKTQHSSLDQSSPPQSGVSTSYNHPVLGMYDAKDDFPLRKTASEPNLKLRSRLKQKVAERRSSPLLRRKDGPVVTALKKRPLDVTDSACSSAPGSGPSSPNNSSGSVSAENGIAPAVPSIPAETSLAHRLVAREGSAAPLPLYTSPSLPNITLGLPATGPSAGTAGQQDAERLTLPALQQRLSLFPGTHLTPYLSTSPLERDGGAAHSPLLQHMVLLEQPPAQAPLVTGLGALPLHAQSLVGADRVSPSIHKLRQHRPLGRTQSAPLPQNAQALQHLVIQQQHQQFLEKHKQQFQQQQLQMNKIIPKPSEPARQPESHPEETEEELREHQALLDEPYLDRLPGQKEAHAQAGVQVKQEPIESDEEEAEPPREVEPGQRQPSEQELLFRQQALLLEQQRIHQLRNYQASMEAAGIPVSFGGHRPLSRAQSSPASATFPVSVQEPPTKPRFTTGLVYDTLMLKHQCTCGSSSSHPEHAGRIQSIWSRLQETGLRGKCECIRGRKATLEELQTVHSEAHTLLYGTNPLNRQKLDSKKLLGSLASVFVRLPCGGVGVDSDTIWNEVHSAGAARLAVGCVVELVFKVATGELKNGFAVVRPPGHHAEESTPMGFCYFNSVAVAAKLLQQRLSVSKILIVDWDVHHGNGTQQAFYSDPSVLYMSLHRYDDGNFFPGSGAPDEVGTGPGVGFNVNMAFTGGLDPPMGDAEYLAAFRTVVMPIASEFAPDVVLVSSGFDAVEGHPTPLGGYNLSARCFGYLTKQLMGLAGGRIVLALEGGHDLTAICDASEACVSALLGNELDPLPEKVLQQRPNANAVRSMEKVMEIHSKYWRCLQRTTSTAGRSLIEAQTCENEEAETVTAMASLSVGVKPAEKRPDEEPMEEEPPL

[2] = biological target: Histone deacetylase 4 (Homo sapiens) (UniProt P56524); assay: Inhibition of HDAC4 in human HL60 cells assessed as increase in histone H4 acetylation at 1 ug/ml after 24 hrs by Western blot analysis; type: cell-based; settings: HL-60
MCF7 = assay: Cytotoxicity against human MCF7 cells; type: functional, cell-based
ASPC1 = assay: Cytotoxicity against human AsPC1 cells; type: functional, cell-based
[3] = biological target: Histone deacetylase 3 (Homo sapiens) (UniProt O15379); assay: Inhibition of HDAC3 in human HL60 cells assessed as increase in histone H4 acetylation at 1 ug/ml after 24 hrs by Western blot analysis; type: cell-based; settings: HL-60
Sequence of Histone deacetylase 3 (Homo sapiens) (O15379 whole entry): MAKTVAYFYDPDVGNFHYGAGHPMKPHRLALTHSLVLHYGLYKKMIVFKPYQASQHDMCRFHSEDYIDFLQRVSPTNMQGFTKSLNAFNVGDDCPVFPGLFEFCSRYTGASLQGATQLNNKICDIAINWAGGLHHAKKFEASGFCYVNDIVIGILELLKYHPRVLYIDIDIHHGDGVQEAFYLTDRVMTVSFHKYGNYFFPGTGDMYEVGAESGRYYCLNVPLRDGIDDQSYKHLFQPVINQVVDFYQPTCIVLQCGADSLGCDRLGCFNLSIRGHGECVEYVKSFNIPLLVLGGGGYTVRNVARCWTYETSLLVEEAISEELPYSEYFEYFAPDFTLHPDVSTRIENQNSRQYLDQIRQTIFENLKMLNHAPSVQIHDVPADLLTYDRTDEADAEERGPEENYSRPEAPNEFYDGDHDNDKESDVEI

NCI-H460 = assay: Cytotoxicity against human NCI-H460 cells; type: functional, cell-based
[4] = biological target: Histone deacetylase 3 (Homo sapiens) (UniProt O15379); assay: Inhibition of HDAC3 in human SW620 cells assessed as increase in histone H3 acetylation at 1 ug/ml after 24 hrs by Western blot analysis; type: cell-based; settings: SW-620
PC-3 = assay: Cytotoxicity against human PC3 cells; type: functional, cell-based
SW-620 = assay: Cytotoxicity against human SW620 cells; type: functional, cell-based

SMILES	inhibition [1]	inhibition [2]	IC50 (MCF7)	IC50 (ASPC1)	inhibition [3]	IC50 (NCI-H460)	inhibition [4]	IC50 (PC-3)	IC50 (SW-620)
Cc1ccc2nc(NC(=O)CCCCCCC(=O)NO)sc2c1	Active	Active	1.6 µg/mL (≈ 4.77 µM)	0.54 µg/mL (≈ 1.61 µM)	Active	0.84 µg/mL (≈ 2.5 µM)	Active	0.53 µg/mL (≈ 1.58 µM)	0.56 µg/mL (≈ 1.67 µM)
O=C(CCCCC(=O)Nc1nc2ccccc2s1)NO	inactive	inactive	4.02 µg/mL (≈ 13.7 µM)	10.2 µg/mL (≈ 34.7 µM)	inactive	14.4 µg/mL (≈ 49.1 µM)	inactive	12.5 µg/mL (≈ 42.6 µM)	7.85 µg/mL (≈ 26.8 µM)
COc1ccc2nc(NC(=O)CCCCC(=O)NO)sc2c1	inactive	inactive	5.91 µg/mL (≈ 18.3 µM)	23.9 µg/mL (≈ 74 µM)	inactive	21.4 µg/mL (≈ 66.2 µM)	inactive	15.3 µg/mL (≈ 47.3 µM)	9.07 µg/mL (≈ 28 µM)
O=C(CCCCCCC(=O)Nc1nc2ccc([N+](=O)[O-])cc2s1)NO	Active	Active	3.83 µg/mL (≈ 10.5 µM)	1.65 µg/mL (≈ 4.5 µM)	Active	1.9 µg/mL (≈ 5.19 µM)	Active	1.28 µg/mL (≈ 3.49 µM)	0.29 µg/mL (≈ 0.791 µM)
O=C(CCCCCCC(=O)Nc1ccccc1)NO [VORINOSTAT]	–	–	–	–	–	–	–	0.94 µg/mL (≈ 3.56 µM)	–
CS(=O)(=O)c1ccc2nc(NC(=O)CCCCCCC(=O)NO)sc2c1	inactive	inactive	15.3 µg/mL (≈ 38.4 µM)	13.5 µg/mL (≈ 33.8 µM)	inactive	6.54 µg/mL (≈ 16.4 µM)	inactive	5.69 µg/mL (≈ 14.2 µM)	5.42 µg/mL (≈ 13.6 µM)
CCOc1ccc2nc(NC(=O)CCCCC(=O)NO)sc2c1	inactive	inactive	8.72 µg/mL (≈ 25.8 µM)	16.7 µg/mL (≈ 49.5 µM)	inactive	7.96 µg/mL (≈ 23.6 µM)	inactive	6.69 µg/mL (≈ 19.8 µM)	9.26 µg/mL (≈ 27.4 µM)
O=C(CCCCC(=O)Nc1nc2ccc([N+](=O)[O-])cc2s1)NO	inactive	inactive	> 30 µg/mL	> 30 µg/mL	inactive	> 30 µg/mL	inactive	> 30 µg/mL	> 30 µg/mL
Cc1ccc2nc(NC(=O)CCCCC(=O)NO)sc2c1	inactive	inactive	4.27 µg/mL (≈ 13.9 µM)	13.3 µg/mL (≈ 43.4 µM)	inactive	11 µg/mL (≈ 35.7 µM)	inactive	6.23 µg/mL (≈ 20.3 µM)	4.69 µg/mL (≈ 15.3 µM)
CS(=O)(=O)c1ccc2nc(NC(=O)CCCCC(=O)NO)sc2c1	inactive	inactive	> 30 µg/mL	> 30 µg/mL	inactive	> 30 µg/mL	inactive	> 30 µg/mL	> 30 µg/mL
CCOc1ccc2nc(NC(=O)CCCCCCC(=O)NO)sc2c1	inactive	inactive	11.6 µg/mL (≈ 31.8 µM)	9.88 µg/mL (≈ 27 µM)	inactive	6.58 µg/mL (≈ 18 µM)	inactive	16.9 µg/mL (≈ 46.2 µM)	10.4 µg/mL (≈ 28.5 µM)
COc1ccc2nc(NC(=O)CCCCCCC(=O)NO)sc2c1	Active	Active	1.85 µg/mL (≈ 5.26 µM)	0.79 µg/mL (≈ 2.25 µM)	Active	1.25 µg/mL (≈ 3.56 µM)	Active	1.56 µg/mL (≈ 4.44 µM)	0.96 µg/mL (≈ 2.73 µM)
O=C(CCCCCCC(=O)Nc1nc2ccccc2s1)NO	Active	Active	6.61 µg/mL (≈ 20.6 µM)	5.69 µg/mL (≈ 17.7 µM)	Active	5.71 µg/mL (≈ 17.8 µM)	Active	5.44 µg/mL (≈ 16.9 µM)	4.01 µg/mL (≈ 12.5 µM)
